Assay results: patent US20100168093A1, “SUBSTITUTED 3-AMINO-4 -HYDROXY PYRROLIDINES COMPOUNDS, THEIR PREPARATION AND USE AS MEDICAMENTS” (priority 2006, published 2010)

How the values were obtained:
Sigma-1 receptor = target: T1, Sigma-1 receptor (Cavia porcellus, UniProt Q60492); experiment: Sigma-1 receptor binding assay, [3H](+)-pentazocine displacement in brain membranes; settings: 2.5 h, compound at 10^−7 M; [3H](+)-pentazocine 0.5 nM; guinea pig brain membranes; non-specific binding defined by 1 μM haloperidol; read-out: Percent Replacement Sigma-1 receptor [10^−7 M]
T1 construct: guinea pig brains were homogenized; from tissue; host or cells: guinea pig brain membranes
Procedure: Some representative compounds of the invention were tested for their activity as sigma (sigma-1) inhibitors. The following protocol was followed:
Brain membrane preparation and binding assays for the σ1-receptor were performed as described (DeHaven-Hudkins et al., 1992, Eur. J. Pharmacol. 227, 371-378.) with some modifications. In brief, guinea pig brains were homogenized in 10 vols. (w/v) of Tris-HCl 50 mM 0.32 M sucrose, pH 7.4, with a Kinematica Polytron PT 3000 at 15000 r.p.m. for 30 s. The homogenate was centrifuged at 1000g for 10 min at 4° C. and the supematants collected and centrifuged again at 48000 g for 15 min at 4° C. The pellet was resuspended in 10 volumes of Tris-HCl buffer (50 mM, pH 7.4), incubated at 37° C. for 30 min, and centrifuged at 48000 g for 20 min at 4° C. Following this, the pellet was resuspended in fresh Tris-HCl buffer (50 mM, pH 7.4) and stored on ice until use.
Each assay tube contained 10 μL of [^3H](+)-pentazocine (final concentration of 0.5 nM), 900 μL of the tissue suspension to a final assay volume of 1 mL and a final tissue concentration of approximately 30 mg tissue net weight/mL. Non-specific binding was defined by addition of a final concentration of 1 μM haloperidol. All tubes were incubated at 37° C. for 150 min before termination of the reaction by rapid filtration over Schleicher & Schuell GF 3362 glass fibre filters [previously soaked in a solution of 0.5% polyethylenimine for at least 1 h]. Filters were then washed with four times with 4 mL of cold Tris-HCl buffer (50 mM, pH 7.4). Following addition of scintillation cocktail, the samples were allowed to equilibrate overnight. The amount of bound radioactivity was determined by liquid scintillation spectrometry using a Wallac Winspectral 1414 liquid scintillation counter. Protein concentrations were determined by the method of Lowry et al. (1951; J. Biol. Chem, 193, 265.).

T1 sequence (Q60492 whole entry): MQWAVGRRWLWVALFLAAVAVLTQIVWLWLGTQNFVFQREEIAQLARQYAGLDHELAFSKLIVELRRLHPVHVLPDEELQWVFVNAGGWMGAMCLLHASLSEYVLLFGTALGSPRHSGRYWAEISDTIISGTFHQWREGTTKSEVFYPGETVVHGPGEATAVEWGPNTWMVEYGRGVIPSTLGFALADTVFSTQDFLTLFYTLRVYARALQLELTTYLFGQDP

inhibition at 0.1 µM (Sigma-1 receptor) [%] | melting point [°C] | Structure (SMILES)
82.1 | 102 to 103 | O[C@@H]1CN(Cc2ccccc2)C[C@H]1N1CCN(Cc2ccccc2)CC1 [Example 17, (3,4-trans)-1-benzyl-4-(4-benzylpiperazin-1-yl)pyrrolidine-3-ol]
90.9 | 120 to 123 | O[C@@H]1CN(Cc2ccccc2)C[C@H]1N1CCN(c2ccccc2)CC1 [Example 18, (3,4-trans)-1-benzyl-4-(4-phenylpiperazin-1-yl)pyrrolidine-3-ol]
